For 15 compounds, Kd and IC50 results are on record in patent US12441707B2, “Indazole compounds” (TYRA BIOSCIENCES, INC., priority 2019, dated 2025).

Molecules are shown by their SMILES. Read-outs that look alike come from different tables or passages of the source.

Experiment [1] deals with T1, FGFR2 (Homo sapiens (Human), UniProt P21802). Nature of the experiment: biochemical.
Method: (§3) Kinase-tagged T7 phage strains were prepared in an E. coli host derived from the BL21 strain. E. coli were grown to log-phase and infected with T7 phage and incubated with shaking at 32° C. until lysis. The lysates were centrifuged and filtered to remove cell debris. […] The liganded beads were blocked with excess biotin and washed with blocking buffer SeaBlock (Pierce), 1% BSA, 0.05% Tween 20, 1 mM DTT to remove unbound ligand and to reduce non-specific binding.
(§4) Test compounds were prepared as 111× stocks in 100% DMSO. Kds were determined using an 11-point 3-fold compound dilution series with three DMSO control points. […] The compounds were then diluted directly into the assays such that the final concentration of DMSO was 0.9%. All reactions performed in polypropylene 384-well plate. Each was a final volume of 0.02 ml. […] The kinase concentration in the eluates was measured by qPCR.
(§5) Binding constants were calculated with a standard dose-response curve using the Hill equation:
(§6) The Hill Slope was set to −1. Curves were fitted using a non-linear least square fit with the Levenberg-Marquardt algorithm.
For a further experiment, the target named is FGFR1 (Homo sapiens (Human), UniProt P11362). Nature of the experiment: Kinase binding assay (kinase-tagged T7 phage, liganded affinity beads, qPCR). Particulars: binding constant; 0.9% DMSO.
The next experiment deals with FGFR3 (Homo sapiens (Human), UniProt P22607). The experiment is described as above. Particulars: binding constant; 0.9% DMSO.
Experiment [2] addresses T1, FGFR2.
Method: as §3, §4, §5, §6
Experiment [3] concerns KG-1 cells (Acute Myeloid Leukemia, FGFR1OP2-FGFR1 fusion). Nature of the experiment: KG-1 cancer cell line cell viability assay (CellTiter-Glo 2.0). The format is cell-based. Particulars: Homo sapiens, 72 hours. From the text: (§1) Experimental Purpose: To detect the change of intracellular ATP by Cell Titer-Glo® and to evaluate the inhibitory effect of the compounds on cancer cell lines by determining the in vitro IC50 value of the compounds.
(§2) RT112/84 and KG-1 cell lines were purchased from American Type Culture Collection (Manassas, VA). UM-UC-14 cell line was purchased from Sigma (St. Louis, MO).

For experiment [4], the system named is RT112/84 cells (Bladder Cancer, FGFR3-TACC3 fusion). In words: RT112/84 cell viability assay (CellTiter-Glo 2.0). The format is cell-based. Particulars: Homo sapiens, 72 hours.
From the text: Example B. RT112/84 Cell Viability Assay
RT112/84 cell line was purchased from American Type Culture Collection (Manassas, VA).
as §1, §2

In experiment [5] the test system is UM-UC-14 cells (Bladder Cancer, FGFR3(S249C)). In words: UM-UC-14 cancer cell line cell viability assay (CellTiter-Glo 2.0). The format is cell-based. Particulars: UMUC14, 72 hours.
From the text: as §1, §2

For experiment [6], the target named is FGFR3-BAIAP2L1 Ba/F3 cells.
FGFR3-BAIAP2L1 Ba/F3 cells, sequence (P22607 23-806 limits assumed, change not shown): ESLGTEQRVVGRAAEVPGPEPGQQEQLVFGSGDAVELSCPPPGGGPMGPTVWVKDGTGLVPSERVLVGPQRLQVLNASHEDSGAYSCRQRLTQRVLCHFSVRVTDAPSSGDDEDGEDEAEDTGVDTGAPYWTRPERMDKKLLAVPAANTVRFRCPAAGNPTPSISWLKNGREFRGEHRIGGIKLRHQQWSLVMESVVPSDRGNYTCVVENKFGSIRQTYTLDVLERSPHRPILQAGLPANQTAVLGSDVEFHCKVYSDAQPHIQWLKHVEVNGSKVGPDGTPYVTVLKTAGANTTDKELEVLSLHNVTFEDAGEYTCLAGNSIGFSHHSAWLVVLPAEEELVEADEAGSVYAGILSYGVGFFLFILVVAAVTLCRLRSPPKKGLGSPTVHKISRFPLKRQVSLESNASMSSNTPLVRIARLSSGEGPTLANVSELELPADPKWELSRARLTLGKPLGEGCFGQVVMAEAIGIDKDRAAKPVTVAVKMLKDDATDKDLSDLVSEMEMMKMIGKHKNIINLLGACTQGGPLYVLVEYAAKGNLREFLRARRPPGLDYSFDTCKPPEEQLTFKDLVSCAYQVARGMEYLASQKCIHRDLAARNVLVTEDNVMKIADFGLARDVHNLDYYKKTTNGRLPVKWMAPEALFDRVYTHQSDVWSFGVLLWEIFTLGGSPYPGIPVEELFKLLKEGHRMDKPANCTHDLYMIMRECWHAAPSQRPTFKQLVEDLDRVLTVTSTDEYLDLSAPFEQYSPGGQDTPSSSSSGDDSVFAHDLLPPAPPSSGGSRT
Method: Ba/F3 Cell Viability Assays Experimental Purpose: Recombinant kinase fusions are transduced into parental Ba/F3, which becomes dependent upon this constitutive kinase activity for IL3-independent survival. Inhibition of kinase activity leads to cell death, which is monitored using CellTiter-Glo® 2.0 (Promega) which measures intracellular ATP concentration that in turn serves as a marker for viability. […] Cultures were maintained at 37° C. in a humidified atmosphere of 5% CO2 and 95% air. Cells were plated in 96-well clear bottom/white plates (Corning #3903) at 10,000 cells/well in 100 μl of media, incubated overnight. The next day, test compound DMSO stock solutions were made at 10 mM and 2 μM final concentration. Compounds were then added to cells in a 9-dose, 10-fold dilution series starting at 30 μM with an HP 300e Digital Dispenser (each dose was applied in triplicate). DMSO was backfilled to each well up to 301 nL total volume of test compound+DMSO, and a total of 301 nL DMSO was added to a control/no test compound well in triplicate. […] Luminescence was recorded by a Synergy H1 Microplate Reader (Biotek, Winooski, VT). Cells were assessed as a percentage of DMSO only treated control cells. Curves were plotted and IC50 values were calculated using the GraphPad Prism 8 program based on a sigmoidal dose-response equation (4 parameter).

T1 sequence (P21802 22-821): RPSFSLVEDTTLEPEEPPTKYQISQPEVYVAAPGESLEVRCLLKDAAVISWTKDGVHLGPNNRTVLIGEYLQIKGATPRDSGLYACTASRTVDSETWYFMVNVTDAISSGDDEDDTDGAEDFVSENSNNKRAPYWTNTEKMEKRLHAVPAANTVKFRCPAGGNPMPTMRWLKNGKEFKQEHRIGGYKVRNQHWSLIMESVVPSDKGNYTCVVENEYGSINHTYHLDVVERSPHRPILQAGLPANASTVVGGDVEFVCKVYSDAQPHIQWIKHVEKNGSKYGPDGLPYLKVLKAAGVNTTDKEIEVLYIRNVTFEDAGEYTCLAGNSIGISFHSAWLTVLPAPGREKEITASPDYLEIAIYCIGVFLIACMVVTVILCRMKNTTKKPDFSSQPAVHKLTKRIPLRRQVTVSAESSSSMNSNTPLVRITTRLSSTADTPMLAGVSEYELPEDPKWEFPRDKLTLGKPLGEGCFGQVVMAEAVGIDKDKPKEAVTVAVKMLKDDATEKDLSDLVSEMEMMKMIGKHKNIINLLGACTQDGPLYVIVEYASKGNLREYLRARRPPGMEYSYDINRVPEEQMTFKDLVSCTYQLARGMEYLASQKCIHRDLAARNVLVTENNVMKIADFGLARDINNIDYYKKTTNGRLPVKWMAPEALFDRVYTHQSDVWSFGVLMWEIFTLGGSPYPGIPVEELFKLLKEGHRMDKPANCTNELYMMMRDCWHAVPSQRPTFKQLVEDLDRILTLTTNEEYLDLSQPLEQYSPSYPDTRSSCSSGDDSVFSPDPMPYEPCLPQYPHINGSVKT
FGFR3, sequence (P22607 23-806): as the sequence (P22607 23-806 limits assumed, change not shown) above
FGFR1, sequence (P11362 22-822): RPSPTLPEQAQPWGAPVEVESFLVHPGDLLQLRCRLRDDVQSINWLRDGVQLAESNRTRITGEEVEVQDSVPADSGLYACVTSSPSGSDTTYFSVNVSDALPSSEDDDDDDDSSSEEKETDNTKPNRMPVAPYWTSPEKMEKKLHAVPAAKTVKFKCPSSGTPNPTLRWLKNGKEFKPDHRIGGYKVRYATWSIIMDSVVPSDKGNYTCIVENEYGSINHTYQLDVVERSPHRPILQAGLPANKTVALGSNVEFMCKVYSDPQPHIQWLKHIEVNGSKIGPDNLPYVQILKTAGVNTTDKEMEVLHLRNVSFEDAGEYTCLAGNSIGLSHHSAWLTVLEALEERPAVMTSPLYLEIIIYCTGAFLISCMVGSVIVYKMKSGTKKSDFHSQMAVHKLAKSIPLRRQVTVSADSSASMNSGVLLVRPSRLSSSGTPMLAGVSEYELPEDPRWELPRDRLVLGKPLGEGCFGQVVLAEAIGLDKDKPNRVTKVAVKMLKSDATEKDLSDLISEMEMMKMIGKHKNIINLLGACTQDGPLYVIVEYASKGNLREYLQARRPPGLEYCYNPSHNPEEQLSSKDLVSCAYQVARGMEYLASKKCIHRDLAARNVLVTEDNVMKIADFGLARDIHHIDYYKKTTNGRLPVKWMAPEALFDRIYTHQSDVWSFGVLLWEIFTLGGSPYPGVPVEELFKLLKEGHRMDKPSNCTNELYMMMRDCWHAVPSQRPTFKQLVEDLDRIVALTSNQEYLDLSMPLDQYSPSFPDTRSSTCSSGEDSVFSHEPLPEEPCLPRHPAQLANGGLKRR

In the case of `CC(Oc1ccc2[nH]nc(-c3cccc(N=S(C)(C)=O)c3)c2c1)c1c(Cl)cncc1Cl` (stereo not shown) [Example 1, [3-[5-[1-(3,5-dichloro-4-pyridyl)ethoxy]-1H-indazol-3-yl]phenyl]imino-dimethyl-oxo-λ^6-sulfane], the figures for the Kd at FGFR2 [1], on FGFR1 and on FGFR3 were 550 nM, 770 nM and 76 nM, respectively.
`CC(Oc1ccc2[nH]nc(-c3cccc(S(C)(=N)=O)c3)c2c1)c1c(Cl)cncc1Cl` (stereo not shown) [Example 2, (3-(5-(1-(3,5-Dichloropyridin-4-yl)ethoxy)-1H-indazol-3-yl)phenyl)(imino) (methyl)-λ^6-6-sulfanone]: the figures for the Kd at FGFR1, at FGFR3 and at FGFR2 [2] were 1200 nM, 120 nM and 400 nM, respectively.
With `C[C@@H](Oc1ccc2[nH]nc(/C=C/c3ccc(N=S(C)(C)=O)nc3)c2c1)c1c(Cl)cncc1Cl` [Example 3], the IC50 in experiment [3] stood at 0.4 nM; in experiment [4], 20 nM.
For the compound `CC(Oc1ccc2[nH]nc(C(=O)Nc3ccc(S(C)(=N)=O)nc3)c2c1)c1c(Cl)cncc1Cl` (stereo not shown) [Example 6, 5-(1-(3,5-Dichloropyridin-4-yl)ethoxy)-N-(6-(S-methylsulfonimidoyl)pyridine-3-yl)-1H-indazole-3-carboxamide], the Kd at FGFR1 came to 260 nM; at FGFR3, 47 nM; at FGFR2 [2] it was 120 nM.
As for `C[C@@H](Oc1ccc2[nH]nc(-c3ccc(N4CCS(=N)(=O)CC4)nc3)c2c1)c1c(Cl)cncc1Cl` [Example 12, (R)-4-(5-(5-(1-(3,5-Dichloropyridin-4-yl)ethoxy)-1H-indazol-3-yl)pyridin-2-yl)-1-imino-1λ^6-thiomorpholine 1-oxide], the IC50 in experiment [3] came to 45 nM; in experiment [5], 5.9 nM; in experiment [4], 4.3 nM.
`C[C@@H](Oc1ccc2[nH]nc(-c3ccc(N4CCS(=N)(=O)CC4)cc3)c2c1)c1c(Cl)cncc1Cl` [Example 13, (R)-4-(4-(5-(1-(3,5-Dichloropyridin-4-yl)ethoxy)-1H-indazol-3-yl)phenyl)-1-imino-1λ^6-thiomorpholine 1-oxide] returned an IC50 in experiment [4] of 16 nM.
Compound `C[C@H](Oc1ccc2[nH]nc(-c3ccc(N4CCS(=N)(=O)CC4)cc3)c2c1)c1c(Cl)cncc1Cl` [Example 14, (S)-4-(4-(5-(1-(3,5-Dichloropyridin-4-yl)ethoxy)-1H-indazol-3-yl)phenyl)-1-imino-1λ^6-thiomorpholine 1-oxide] had a concentration for half-maximal inhibition (IC50) in experiment [4] of 75 nM.
Still for that read-out and setting: to `C[C@@H](Oc1ccc2[nH]nc(NC(=O)c3ccc(N=S(C)(C)=O)nc3)c2c1)c1c(Cl)cncc1Cl` [Example 19, (R)—N-(5-(1-(3,5-Dichloropyridin-4-yl)ethoxy)-1H-indazol-3-yl)-6-((dimethyl(oxo)-λ^6-sulfaneylidene)amino)nicotinamide] belongs 39 nM.
`C[C@@H](Oc1ccc2[nH]nc(-c3ccc(N=S(C)(C)=O)nc3)c2c1)c1c(Cl)cncc1Cl` [Example 21, (R)-((5-(5-(1-(3,5-Dichloropyridin-4-yl)ethoxy)-1H-indazol-3-yl)pyridin-2-yl)imino)dimethyl-λ^6-sulfanone]: the IC50 in experiment [3] is 103 nM; in experiment [5], 19 nM; in experiment [4], 11 nM.
As for `CN=S1(=O)CCN(c2ccc(-c3n[nH]c4ccc(O[C@H](C)c5c(Cl)cncc5Cl)cc34)cn2)CC1` [Example 24, 4-[5-[5-[(1R)-1-(3,5-dichloro-4-pyridyl)ethoxy]-1H-indazol-3-yl]-2-pyridyl]-1-methylimino-1,4-thiazinane 1-oxide], the IC50 in experiment [3] stood at 169 nM; in experiment [5], 12 nM; in experiment [4], 8.4 nM.
The matching figures for `C[C@@H](Oc1ccc2[nH]nc(-c3cnc(N=S(C)(C)=O)c(F)c3)c2c1)c1c(Cl)cncc1Cl` [Example 25, [5-[5-[(1R)-1-(3,5-dichloro-4-pyridyl)ethoxy]-1H-indazol-3-yl]-3-fluoro-2-pyridyl]imino-dimethyl-oxo-λ^6-sulfane]: 81 nM, 19 nM and 14 nM.
Consider `C[C@@H](Oc1ccc2[nH]nc(-c3cnc(N=S(C)(C)=O)nc3)c2c1)c1c(Cl)cncc1Cl` [Example 26, [5-[5-[(1R)-1-(3,5-dichloro-4-pyridyl)ethoxy]-1H-indazol-3-yl]pyrimidin-2-yl]imino-dimethyl-oxo-λ^6-sulfane], for which the concentration for half-maximal inhibition (IC50) was determined as 123 nM in experiment [3], 18 nM in experiment [6], 29 nM in experiment [5] and 22 nM in experiment [4].
On to `C[C@@H](Oc1ccc2[nH]nc(-c3ccc(S(C)(=N)=O)nc3)c2c1)c1c(Cl)cncc1Cl` (stereo partly drawn) [Example 28, [5-[5-[(1R)-1-(3,5-dichloro-4-pyridyl)ethoxy]-1H-indazol-3-yl]-2-pyridyl]-imino-methyl-oxo-λ^6-sulfane], for which the IC50 is 44 nM in experiment [5] and 28 nM in experiment [4].
The matching figures for `Cc1ncc(Cl)c([C@@H](C)Oc2ccc3[nH]nc(-c4ccc(N=S(C)(C)=O)nc4)c3c2)c1Cl` [Example 30, [5-[5-[(1R)-1-(3,5-dichloro-2-methyl-4-pyridyl)ethoxy]-1H-indazol-3-yl]-2-pyridyl]imino-dimethyl-oxo-λ^6-sulfane]: 47 nM and 38 nM.
Regarding `C[C@@H](Oc1ccc2[nH]nc(-c3ccc(N=S4(=O)CCCC4)nc3)c2c1)c1c(Cl)cncc1Cl` [Example 32, 1-[[5-[5-[(1R)-1-(3,5-Dichloro-4-pyridyl)ethoxy]-1H-indazol-3-yl]-2-pyridyl]imino]thiolane 1-oxide], the Kd on FGFR2 [1] worked out at 15 nM; on FGFR1, 14 nM; on FGFR3 it was 1.9 nM.
